Experimental findings from PMC10216581, “Homogeneous, Synthetic, Non-Saccharide Glycosaminoglycan Mimetics as Potent Inhibitors of Human Cathepsin G” (Biomolecules, 2023) are described below.

What all share (assay type): biochemical
In one assay the target is T1, Human CatG (Homo sapiens, UniProt P08311).
T1 construct: purchased Elastin Products Company (Owensville, MO, USA)
T1 sequence (P08311 21-255): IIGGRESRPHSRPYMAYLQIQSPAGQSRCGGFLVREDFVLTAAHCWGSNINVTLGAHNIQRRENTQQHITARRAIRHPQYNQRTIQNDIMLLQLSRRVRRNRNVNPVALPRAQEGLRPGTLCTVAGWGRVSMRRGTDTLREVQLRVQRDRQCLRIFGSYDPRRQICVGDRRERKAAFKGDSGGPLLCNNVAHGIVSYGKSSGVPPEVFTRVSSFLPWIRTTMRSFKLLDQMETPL
The assay is described as follows: Direct inhibition of CatG, chromogenic substrate (S-7388) hydrolysis assay, IC50 determination. The settings on record: for HS (Hill slope): Hill slope of dose-response fit; for HS (Hill slope) / IC50 / ΔY (efficacy): 100 mM NaCl; for HS (Hill slope) / ΔY (efficacy): pH 7.4; for IC50: pH 7.4 tris buffer, 37 °C, 60 nM CatG, 750 µM S-7388, ± 1 S.E., read-out: IC50; for ΔY (efficacy): ΔY = YM − YO of dose-response fit; for fold difference (loss) in CatG inhibition potency relative to NSGM 25: ratio of IC50s versus 25. How it is done: A chromogenic substrate hydrolysis assay was used to determine the direct inhibition of CatG by the NSGMs, as previously reported. To each well of a 96-well microplate containing 88 µL of 20 mM tris buffer, containing 100 mM NaCl, 2.5 mM CaCl2, 0.1% PEG 8000, and 0.05% Tween 80, 4 µL of CatG (final concentration of 60 nM) and 5 µL of H2O or NSGM (final concentration of 0–100 µM) were added. After incubating for a period of 5 min, 3 µL of CatG substrate (S-7388, final concentration of 750 µM) was added, and the residual CatG activity was obtained from the initial rate of increase of absorbance at 405 nm. The relative residual activity of CatG for each of the NSGMs, at the various concentrations, was calculated from the ratio of CatG activity in the presence and absence of NSGMs. The dose dependence curve was plotted using a logistic equation (see below) in Sigmaplot version 12 to obtain the IC50 (potency), Hill slope (HS), and efficacy (ΔY). Here, Y is the ratio of residual CatG activity in the presence of NSGMs to that in their absence, YO and YM are the minimum and maximum values of fractional residual CatG activity, respectively, IC50 is the concentration of the NSGM that inhibits CatG activity by 50%, and HS is the Hill slope. ΔY = YM − YO. Y=YO+YM−YO/1+10^logI0−logIC50HS
Figure 4 Representative IC50 profiles for CatG inhibition by NSGMs. Direct inhibition of human CatG was measured using the chromogenic substrate hydrolysis assay at pH 7.4 and 37 °C. Solid lines represent analysis using the logistic dose–response relationship (Equation (1)) to obtain the IC50, ΔY%, and HS. Errors represent ± 1 S.E.

The subject of assay [1] is human plasma. Put plainly: Activated partial thromboplastin time (aPTT) clotting assay. The settings on record: concentration required to double the aPTT of pooled human plasma. On the procedure:
(§1) The impacts of NSGM 25 on activated partial thromboplastin time (aPTT) and the prothrombin time (PT) of human plasma were measured employing a standard one-stage recalcification assay at 37 °C, as previously reported. CaCl2 and thromboplastin-D were used to initiate clotting in aPTT and PT assays, respectively, in the absence and presence of NSGM 25, and the time to clot was recorded accordingly.

Assay [2] relates to human plasma. The assay is described as follows: Prothrombin time (PT) clotting assay. The settings on record: concentration required to double the PT of pooled human plasma. On the procedure:
as §1

Structures are written as SMILES.

As for `Cc1ccc(OCCOc2cc(OS(=O)(=O)O)cc3oc(-c4ccc(OS(=O)(=O)O)cc4)cc(=O)c23)cc1` [NSGM 16], at Human CatG, the “HS (Hill slope)” value worked out at 1.9 ± 0.3, the half-inhibitory concentration (IC50) was > 100 µM and the “ΔY (efficacy)” value is reported as 115 ± 4%.
Taken in the same sequence, the figures for `O=c1cc(-c2ccc(OS(=O)(=O)O)cc2)oc2cc(OS(=O)(=O)O)cc(OCc3cccc(COc4cc(OS(=O)(=O)O)cc5oc(-c6ccc(OS(=O)(=O)O)cc6)cc(=O)c45)c3)c12` [NSGM 21] were 1.3 ± 0.8, 10.3 ± 4.8 µM and 81 ± 7%.
Turning to `O=c1cc(-c2ccc(OS(=O)(=O)O)cc2)oc2cc(OS(=O)(=O)O)cc(OCC=CCOc3cc(OS(=O)(=O)O)cc4oc(-c5ccc(OS(=O)(=O)O)cc5)cc(=O)c34)c12` [NSGM 18], at Human CatG, the “HS (Hill slope)” value stood at 1.5 ± 0.3, the half-maximal inhibitory concentration (IC50) came out at 4.7 ± 0.7 µM and the “ΔY (efficacy)” value worked out at 81 ± 7%.
`CC1CNc2c(cccc2S(=O)(=O)N[C@@H](CCCNC(=N)N)C(=O)N2CC[C@@H](C)C[C@@H]2C(=O)O)C1` (some centres unmarked) [Argatroban, argatroban, reference compound]: in the assay on human plasma [1], the “aPTT (EC2X)” value is on record as 0.34 µM. The “PT (EC2X)” value in the assay on human plasma [2] came out at 0.36 µM.
In the case of `O=c1c(OS(=O)(=O)O)c(-c2ccc(OS(=O)(=O)O)c(OS(=O)(=O)O)c2)oc2cc(OS(=O)(=O)O)cc(OCCCOc3cc(OS(=O)(=O)O)cc4oc(-c5ccc(OS(=O)(=O)O)c(OS(=O)(=O)O)c5)c(OS(=O)(=O)O)c(=O)c34)c12` [NSGM 24], on Human CatG, the “HS (Hill slope)” value came out at 1.5 ± 0.5, the IC50 was determined as 0.21 ± 0.04 µM, the “fold difference (loss) in CatG inhibition potency relative to NSGM 25” value worked out at 4 fold and the “ΔY (efficacy)” value amounted to 94 ± 9%.
On to `O=c1c(OS(=O)(=O)O)c(-c2ccc(OS(=O)(=O)O)c(OS(=O)(=O)O)c2)oc2cc(OS(=O)(=O)O)cc(OCc3cccc(COc4cc(OS(=O)(=O)O)cc5oc(-c6ccc(OS(=O)(=O)O)c(OS(=O)(=O)O)c6)c(OS(=O)(=O)O)c(=O)c45)c3)c12` [NSGM 27], for which, on Human CatG, the “HS (Hill slope)” value was determined as 0.9 ± 0.4, the IC50 is 0.15 ± 0.06 µM and the “ΔY (efficacy)” value is 77 ± 10%.
On to `CCOC(=O)c1c(C)oc2cc(OCc3ccccc3)c(OCCCOc3cc(OS(=O)(=O)O)cc4oc(-c5ccc(OS(=O)(=O)O)cc5)cc(=O)c34)cc12` [NSGM 30], for which, on Human CatG, the “HS (Hill slope)” value came out at 2.1 ± 0.5, the IC50 came to 18.9 ± 2.2 µM and the “ΔY (efficacy)” value stood at 87 ± 5%.
For the compound `O=S(=O)(O)Oc1cc2c(c(OS(=O)(=O)O)c1)CC(OS(=O)(=O)O)C(c1ccc(OS(=O)(=O)O)c(OS(=O)(=O)O)c1)O2` (centres unmarked) [NSGM 17], on Human CatG, the “HS (Hill slope)” value amounted to 3.1 ± 1.3, the IC50 was 65 ± 13 µM and the “ΔY (efficacy)” value is listed as 76 ± 7%.
As to `O=c1cc(-c2ccc(OS(=O)(=O)O)cc2)oc2cc(OS(=O)(=O)O)cc(OCc3ccc(COc4cc(OS(=O)(=O)O)cc5oc(-c6ccc(OS(=O)(=O)O)cc6)cc(=O)c45)cc3)c12` [NSGM 19], at Human CatG, the “HS (Hill slope)” value is 3.1 ± 1.0, the half-inhibitory concentration (IC50) came to 3.3 ± 0.3 µM, the “fold difference (loss) in CatG inhibition potency relative to NSGM 25” value is listed as 66 fold and the “ΔY (efficacy)” value came out at 82 ± 4%.
Take `CCOC(=O)c1c(C)oc2cc(OCc3cccc(OS(=O)(=O)O)c3)c(OS(=O)(=O)O)cc12` [NSGM 2]: the IC50 at Human CatG is > 50 µM.
`O=c1cc(-c2ccc(OS(=O)(=O)O)cc2)oc2cc(OS(=O)(=O)O)cc(OCc3ccc(-c4ccc(COc5cc(OS(=O)(=O)O)cc6oc(-c7ccc(OS(=O)(=O)O)cc7)cc(=O)c56)cc4)cc3)c12` [NSGM 23]: at Human CatG, the “HS (Hill slope)” value came to 4.1 ± 1.0, the IC50 is 3.4 ± 0.2 µM and the “ΔY (efficacy)” value amounted to 103 ± 4%.
`O=c1cc(-c2ccc(OS(=O)(=O)O)cc2)oc2cc(OS(=O)(=O)O)cc(OCc3ccc(COc4cc(OS(=O)(=O)O)cc5oc(-c6ccc(OS(=O)(=O)O)cc6)cc(=O)c45)nc3)c12` [NSGM 22]: at Human CatG, the “HS (Hill slope)” value is 1.2 ± 0.2, the IC50 is 1.3 ± 0.2 µM and the “ΔY (efficacy)” value is given as 105 ± 7%.
For `O=C(NC[C@H]1CN(c2ccc(N3CCOCC3=O)cc2)C(=O)O1)c1ccc(Cl)s1` [Rivaroxaban, rivaroxaban, reference compound], the “aPTT (EC2X)” value with human plasma [1] was determined as 0.12 µM. For the same compound, the “PT (EC2X)” value in the assay with human plasma [2] stood at 0.15 µM.
Turning to `O=c1c(OS(=O)(=O)O)c(-c2ccc(OS(=O)(=O)O)c(OS(=O)(=O)O)c2)oc2cc(OS(=O)(=O)O)cc(OCc3ccc(COc4cc(OS(=O)(=O)O)cc5oc(-c6ccc(OS(=O)(=O)O)c(OS(=O)(=O)O)c6)c(OS(=O)(=O)O)c(=O)c45)nc3)c12` [NSGM 28], on Human CatG, the “HS (Hill slope)” value was found to be 0.9 ± 0.2, the half-maximal inhibitory concentration (IC50) was 0.18 ± 0.04 µM and the “ΔY (efficacy)” value is given as 77 ± 5%.
As to `COc1cc2oc(C)c(C(=O)OCCOS(=O)(=O)O)c2cc1OS(=O)(=O)O` [NSGM 3], the IC50 at Human CatG was > 50 µM.

For orientation: IC50 means the concentration needed to halve the response being measured.
